The text below walks through data of paper PMC9055250, “Design, synthesis, and biological evaluation of new 6,N^2-diaryl-1,3,5-triazine-2,4-diamines as anticancer agents selectively targeting triple negative breast cancer cells” (RSC Advances, 2020).

The subject of series [1] is SKBR-3 breast cancer cells. The series can be described thus: MTT in vitro cytotoxicity assay, SKBR-3. It is filed as cell-based. The note with it: Homo sapiens; for viability at 10 µM: SK-BR-3, 10 μM, 72 h, read-out: Cell viability (%) SKBR-3; for GI50: SK-BR-3, 72 h, read-out: GI50 ± SD SKBR-3. The method, then: (§1) The synthesized compounds were tested against three breast tumor cell lines (MDA-MB231, SKBR-3 and MCF-7) and epithelial breast cell line (MCF-10A) by the MTT colorimetric assay.[29,30] All cells were obtained from the American Type Culture Collection. The cancerous cell lines were grown in Dulbecco's modified eagle medium (DMEM) supplemented with 10% fetal bovine serum (FBS) and 1% pen-strep antibiotic. The MCF-10A human epithelial breast cell line was grown in the complete mammary epithelial growth medium containing horse serum 5%, epithelial growth factor 20 ng mL^−1, hydrocortisone […], cholera toxin 100 ng mL^−1, insulin 10 μg mL^−1, and pen-step antibiotic.[31] For the cytotoxic assay, 20 to 75 × 10^3 cells per mL (based on the doubling time for each cell line) were seeded in 96-well plates and the plates were incubated overnight in a humidified air atmosphere at 37 °C in 5% CO2 incubator.
(§2) The cells were then treated with compounds at different concentrations. After 72 h of incubation, the MTT (0.5 mg mL^−1) was added to wells, followed by 4 h of incubation. The culture medium was then removed and DMSO (100 μL per well) was added and the absorbance values were measured at 570 nm using the multi-well Tecan NanoQuant, Infinite m200 Pro plate reader. Growth inhibitory values (GI50) were calculated using GraphPad Prism 7 (GraphPad Software, San Diego, USA) by nonlinear regression analysis. Three independent experiments were carried out and the data was expressed in mean ± standard deviation (SD). The concentration–response curves used for the GI50 calculation are available in ESI. ^†

Series [2] deals with MCF-10A human epithelial breast cell line. In words: MTT in vitro cytotoxicity assay, MCF-10A. The format is cell-based. The note with it: 72 h, read-out: GI50 ± SD MCF-10A. Here is the method: as §1, §2
Series [3] concerns MCF-7 breast cancer cells. In words: MTT in vitro cytotoxicity assay, MCF-7. The format is cell-based. To be noted: Homo sapiens; for viability at 10 µM: MCF7, 10 μM, 72 h, read-out: Cell viability (%) MCF-7; for GI50: MCF7, 72 h, read-out: GI50 ± SD MCF-7. Here is the method:
as §1, §2

For series [4], the system named is MDA-MB231 breast cancer cells. In words: MTT in vitro cytotoxicity assay, MDA-MB231. The format is cell-based. The note with it: for viability at 10 µM / GI50: Homo sapiens, MDA-MB-231; for viability at 10 µM: read-out: Cell viability (%) MDA-MB231. Here is the method:
as §1, §2

Where [5] appears, read: 72 h, MTT, read-out: GI50 ± SD MDA-MB231.
The mark [6] stands for this setting: MDA-MB231, calculated from GI50, read-out: Experimental pGI50 (converted).

Where two headings read alike, the source gives them in different places.

Molecule `COc1ccccc1Nc1nc(N)nc(-c2cc(OC)c(OC)c(OC)c2)n1` [Compound 13, N ^2-(2-Methoxyphenyl)-6-(3,4,5-trimethoxyphenyl)-1,3,5-triazine-2,4-diamine] showed a melting point of 173 to 175 °C. In series [1], the viability at 10 µM was determined as 57% and the GI50 worked out at 14 ± 1.6 µM. The GI50 in series [2] was over 20 µM. In series [3], the viability at 10 µM was 100% and the GI50 is over 20 µM. Besides, the viability at 10 µM in series [4] (72 h, MTT) is 16%. Besides, the GI50 in series [4] (setting [5]) was 2.1 ± 0.2 µM. For the same molecule, in series [4] (setting [6]), the GI50 was 2.04 µM.

In turn, `Nc1nc(Nc2ccc(Cl)cc2)nc(-c2ccc(OC(F)(F)F)cc2)n1` [Compound 4, N ^2-(4-Chlorophenyl)-6-(4-(trifluoromethoxy)phenyl)-1,3,5-triazine-2,4-diamine] showed a melting point of 201 to 203 °C. In series [1], the viability at 10 µM worked out at 86% and the GI50 was over 20 µM. Besides, in series [2], the GI50 was over 20 µM. For the same molecule, in series [3], the viability at 10 µM was 95% and the GI50 is over 20 µM. For the same molecule, in series [4] (72 h, MTT), the viability at 10 µM came out at 34%. Also, the GI50 in series [4] (setting [5]) was 16.7 ± 1.2 µM. Further, in series [4] (setting [6]), the GI50 was 16.6 µM.

`COc1cc(-c2nc(N)nc(Nc3ccccc3Cl)n2)cc(OC)c1OC` [Compound 12, N ^2-(2-Chlorophenyl)-6-(3,4,5-trimethoxyphenyl)-1,3,5-triazine-2,4-diamine]: the melting point lay in the range of 176 to 178 °C. Besides, in series [1], the viability at 10 µM worked out at 80% and the GI50 was over 20 µM. In series [2], the GI50 is over 20 µM. Moreover, in series [3], the viability at 10 µM amounted to 100% and the GI50 is over 20 µM. The viability at 10 µM in series [4] (72 h, MTT) stood at 42%. For the same molecule, the GI50 in series [4] (setting [5]) worked out at 11.3 ± 1.1 µM. For the same molecule, the GI50 in series [4] (setting [6]) was 11.2 µM.

As to `Cc1ccc(-c2nc(N)nc(Nc3ccccc3Cl)n2)cc1` [Compound 6, N ^2-(2-Chlorophenyl)-6-(4-methylphenyl)-1,3,5-triazine-2,4-diamine], the melting point was in the range of 146 to 148 °C. Also, in series [1], the viability at 10 µM came out at 80% and the GI50 was over 20 µM. Also, in series [2], the GI50 was over 20 µM. Further, in series [3], the viability at 10 µM is 51% and the GI50 was found to be 10.7 ± 1 µM. In addition, the viability at 10 µM in series [4] (72 h, MTT) was determined as 36%. In addition, the GI50 in series [4] (setting [5]) worked out at 3.8 ± 0.4 µM. For the same molecule, in series [4] (setting [6]), the GI50 is 3.8 µM.

Regarding `COc1cc(-c2nc(N)nc(Nc3ccccc3)n2)cc(OC)c1OC` [Compound 10, N ^2-Phenyl-6-(3,4,5-trimethoxyphenyl)-1,3,5-triazine-2,4-diamine], the melting point lay in the range of 111 to 113 °C. Also, in series [1], the viability at 10 µM was found to be 37% and the GI50 was 17.2 ± 0.4 µM. Besides, the GI50 in series [2] is over 20 µM. Further, in series [3], the viability at 10 µM was 62% and the GI50 was over 20 µM. Moreover, the viability at 10 µM in series [4] (72 h, MTT) turned out to be 14%. Besides, in series [4] (setting [5]), the GI50 stood at 9.7 ± 0.6 µM. The GI50 in series [4] (setting [6]) was 9.77 µM.

For the molecule `CN(Cc1cnc2nc(N)nc(N)c2n1)c1ccc(C(=O)N[C@@H](CCC(=O)O)C(=O)O)cc1` [Methotrexate, reference compound], the GI50 in series [3] is 5.8 ± 0.5 µM; in series [4] (setting [5]), 0.01 ± 0.001 µM.

On to `COc1ccc(Nc2nc(N)nc(-c3cc(OC)c(OC)c(OC)c3)n2)cc1` [Compound 19, N ^2-(4-Methoxyphenyl)-6-(3,4,5-trimethoxyphenyl)-1,3,5-triazine-2,4-diamine], for which the melting point lay in the range of 195 to 197 °C. In series [1], the viability at 10 µM is 48% and the GI50 turned out to be 0.27 ± 0.02 µM. Further, the GI50 in series [2] was over 20 µM. In series [3], the viability at 10 µM amounted to 52% and the GI50 is over 20 µM. Further, the viability at 10 µM in series [4] (72 h, MTT) was 20%. Besides, in series [4] (setting [5]), the GI50 stood at 0.01 ± 0.001 µM. Moreover, in series [4] (setting [6]), the GI50 was 0.01 µM. Further, in series [4] (MDA-MB231, para- vs ortho-/meta-substituted ring B (13 vs 19, 14 vs 16, 15 vs 18)), the “fold increase in antiproliferative activity over regioisomer” value was 200 fold.

Molecule `COc1cc(-c2nc(N)nc(Nc3ccc(C(C)C)cc3)n2)cc(OC)c1OC` [Compound 21, N ^2-(4-Isopropylphenyl)-6-(3,4,5-trimethoxyphenyl)-1,3,5-triazine-2,4-diamine] showed a melting point of 190 to 192 °C. Besides, in series [1], the viability at 10 µM was 42% and the GI50 amounted to 1.1 ± 0.05 µM. Besides, the GI50 in series [2] was over 20 µM. In addition, in series [3], the viability at 10 µM was 49% and the GI50 is 10.7 ± 1.1 µM. The viability at 10 µM in series [4] (72 h, MTT) was determined as 9%. Besides, the GI50 in series [4] (setting [5]) worked out at 0.04 ± 0.002 µM. For the same molecule, the GI50 in series [4] (setting [6]) is 0.0398 µM.

The molecule `COc1ccccc1Nc1nc(N)nc(-c2cccc(F)c2)n1` [Compound 1, 6-(3-Fluorophenyl)-N^2-(2-methoxyphenyl)-1,3,5-triazine-2,4-diamine] registered a melting point of 140 to 142 °C. In series [1], the viability at 10 µM came to 84% and the GI50 was over 20 µM. Also, in series [2], the GI50 was over 20 µM. For the same molecule, in series [3], the viability at 10 µM was 88% and the GI50 is over 20 µM. Besides, the viability at 10 µM in series [4] (72 h, MTT) came out at 49%. Moreover, the GI50 in series [4] (setting [5]) is 17.3 ± 0.6 µM. In series [4] (setting [6]), the GI50 was 17.4 µM.

In the case of `COc1cc(-c2nc(N)nc(Nc3ccc(Br)cc3)n2)cc(OC)c1OC` [Compound 17, N ^2-(4-Bromophenyl)-6-(3,4,5-trimethoxyphenyl)-1,3,5-triazine-2,4-diamine], the melting point was in the range of 217 to 219 °C. In addition, in series [1], the viability at 10 µM turned out to be 43% and the GI50 stood at 0.17 ± 0.01 µM. Moreover, in series [2], the GI50 is over 20 µM. Also, in series [3], the viability at 10 µM turned out to be 48% and the GI50 is over 20 µM. Besides, in series [4] (72 h, MTT), the viability at 10 µM came out at 24%. For the same molecule, the GI50 in series [4] (setting [5]) is 0.008 ± 0.0005 µM. In addition, the GI50 in series [4] (setting [6]) was 0.00794 µM.

Molecule `CN(C)c1ccc(-c2nc(N)nc(Nc3ccccc3Cl)n2)cc1` [Compound 5, N ^2-(2-Chlorophenyl)-6-(4-(dimethylamino)phenyl)-1,3,5-triazine-2,4-diamine] registered a melting point of 191 to 193 °C. In series [1], the viability at 10 µM turned out to be 55% and the GI50 was found to be 0.4 ± 0.04 µM. In series [2], the GI50 was over 20 µM. In addition, in series [3], the viability at 10 µM is 86% and the GI50 was over 20 µM. Moreover, in series [4] (72 h, MTT), the viability at 10 µM came out at 28%. Also, the GI50 in series [4] (setting [5]) came out at 0.1 ± 0.001 µM. The GI50 in series [4] (setting [6]) is 0.1 µM.

On to `Cc1cn(-c2cc(NC(=O)c3ccc(C)c(Nc4nccc(-c5cccnc5)n4)c3)cc(C(F)(F)F)c2)cn1` [Nilotinib, reference compound], for which the GI50 in series [1] was found to be 9.6 ± 0.5 µM; in series [4] (setting [5]), 0.04 ± 0.001 µM.

`Cc1ccc(-c2nc(N)nc(Nc3ccc(Cl)cc3)n2)cc1` [Compound 7, N ^2-(4-Chlorophenyl)-6-(4-methylphenyl)-1,3,5-triazine-2,4-diamine] showed a melting point of 202 to 204 °C. In series [1], the viability at 10 µM was 76% and the GI50 is over 20 µM. Further, the GI50 in series [2] was over 20 µM. For the same molecule, in series [3], the viability at 10 µM was 95% and the GI50 was over 20 µM. In series [4] (72 h, MTT), the viability at 10 µM amounted to 51%. For the same molecule, the GI50 in series [4] (setting [5]) was found to be 9.6 ± 0.2 µM. Besides, in series [4] (setting [6]), the GI50 was 9.55 µM.

Take `COc1cc(-c2nc(N)nc(Nc3ccccc3F)n2)cc(OC)c1OC` [Compound 11, N ^2-(2-Fluorophenyl)-6-(3,4,5-trimethoxyphenyl)-1,3,5-triazine-2,4-diamine]: the melting point lay in the range of 177 to 179 °C. Besides, in series [1], the viability at 10 µM is 73% and the GI50 was over 20 µM. Also, in series [2], the GI50 was over 20 µM. In series [3], the viability at 10 µM worked out at 98% and the GI50 is over 20 µM. Moreover, the viability at 10 µM in series [4] (72 h, MTT) was 34%. Besides, the GI50 in series [4] (setting [5]) worked out at 7.9 ± 0.5 µM. The GI50 in series [4] (setting [6]) is 7.94 µM.

Molecule `COc1cc(-c2nc(N)nc(Nc3ccc(OC(F)(F)F)cc3)n2)cc(OC)c1OC` [Compound 20, N ^2-(4-(Trifluoromethoxy)phenyl)-6-(3,4,5-trimethoxyphenyl)-1,3,5-triazine-2,4-diamine] showed a melting point of 179 to 181 °C. In addition, in series [1], the viability at 10 µM worked out at 45% and the GI50 stood at 5 ± 0.35 µM. Moreover, the GI50 in series [2] is over 20 µM. Moreover, in series [3], the viability at 10 µM is 51% and the GI50 was over 20 µM. Moreover, in series [4] (72 h, MTT), the viability at 10 µM is 20%. The GI50 in series [4] (setting [5]) amounted to 1.5 ± 0.1 µM. The GI50 in series [4] (setting [6]) was 1.48 µM.

A word on the melting point: it is the temperature, or range, at which the solid turns liquid. The viability is the share of living cells, or the viability signal relative to a control.
